Results as given in patent US20240270751A1, “Pyrazolopyridinone Compounds” (BeiGene Ltd., priority 2021, published 2024).

Tests used:
[1] = biological target: DGKα (Homo sapiens (Human), UniProt P23743); assay: Biochemical DGK IC50 assay, DGKα ADP-Glo assay; details: 7.5 nM enzyme, 140 μM ATP, 80 μM DAG
Outline: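 Compounds at final 1.55˜10000 nM or 23.3˜150000 nM were tested against full-length DGKα. Substrate was lipid micelles of DAG and PS resuspended in 25 mM HEPES pH 7.0 with 0.5 mM EDTA and 160 mM octyl β-D-glucopyranoside. ADP formed was detected by ADP-Glo.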

[2] = biological target: DGKζ (Homo sapiens (Human), UniProt Q13574); assay: Biochemical DGK IC50 assay, DGKζ ADP-Glo assay; details: 0.5 nM enzyme, 140 μM ATP, 80 μM DAG; read-out: DGKζ ADP-Glo assay IC50
Sequence of DGKζ (Q13574 other isoform, or with tags, fused parts or gaps): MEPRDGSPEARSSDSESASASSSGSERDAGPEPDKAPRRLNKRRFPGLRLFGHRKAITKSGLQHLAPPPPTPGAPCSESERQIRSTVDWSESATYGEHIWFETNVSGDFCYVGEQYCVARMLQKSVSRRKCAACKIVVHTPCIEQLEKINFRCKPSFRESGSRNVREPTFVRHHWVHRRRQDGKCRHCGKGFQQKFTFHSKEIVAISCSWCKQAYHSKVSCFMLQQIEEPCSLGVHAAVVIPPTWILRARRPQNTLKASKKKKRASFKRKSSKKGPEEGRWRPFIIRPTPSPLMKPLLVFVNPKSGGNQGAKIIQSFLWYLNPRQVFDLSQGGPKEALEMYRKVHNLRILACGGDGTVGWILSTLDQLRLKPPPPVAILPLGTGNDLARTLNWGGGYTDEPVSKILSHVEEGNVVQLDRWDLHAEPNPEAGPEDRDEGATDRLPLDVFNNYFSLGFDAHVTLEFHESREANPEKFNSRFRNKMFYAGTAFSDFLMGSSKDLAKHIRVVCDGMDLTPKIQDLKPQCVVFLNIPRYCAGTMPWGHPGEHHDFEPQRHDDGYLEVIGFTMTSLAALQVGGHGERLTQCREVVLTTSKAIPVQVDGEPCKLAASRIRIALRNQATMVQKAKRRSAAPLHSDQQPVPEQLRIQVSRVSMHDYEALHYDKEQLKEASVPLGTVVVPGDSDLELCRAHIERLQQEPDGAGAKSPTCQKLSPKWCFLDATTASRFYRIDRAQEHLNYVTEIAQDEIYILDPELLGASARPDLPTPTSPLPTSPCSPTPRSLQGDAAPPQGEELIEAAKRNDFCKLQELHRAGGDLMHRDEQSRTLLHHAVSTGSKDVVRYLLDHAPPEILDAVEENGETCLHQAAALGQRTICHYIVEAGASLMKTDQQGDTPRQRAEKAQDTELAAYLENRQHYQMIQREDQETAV
Outline: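 ADP formation measured by ADP-Glo luminescence, with test compounds at final 1.55–10000 nM or 23.3–150000 nM. Enzyme: purified full-length human DGKζ from Sf9 insect cells; substrate: DAG/PS micelles in 25 mM HEPES pH 7.0, 0.5 mM EDTA, octyl glucoside.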

Sequence of DGKα (P23743 whole entry): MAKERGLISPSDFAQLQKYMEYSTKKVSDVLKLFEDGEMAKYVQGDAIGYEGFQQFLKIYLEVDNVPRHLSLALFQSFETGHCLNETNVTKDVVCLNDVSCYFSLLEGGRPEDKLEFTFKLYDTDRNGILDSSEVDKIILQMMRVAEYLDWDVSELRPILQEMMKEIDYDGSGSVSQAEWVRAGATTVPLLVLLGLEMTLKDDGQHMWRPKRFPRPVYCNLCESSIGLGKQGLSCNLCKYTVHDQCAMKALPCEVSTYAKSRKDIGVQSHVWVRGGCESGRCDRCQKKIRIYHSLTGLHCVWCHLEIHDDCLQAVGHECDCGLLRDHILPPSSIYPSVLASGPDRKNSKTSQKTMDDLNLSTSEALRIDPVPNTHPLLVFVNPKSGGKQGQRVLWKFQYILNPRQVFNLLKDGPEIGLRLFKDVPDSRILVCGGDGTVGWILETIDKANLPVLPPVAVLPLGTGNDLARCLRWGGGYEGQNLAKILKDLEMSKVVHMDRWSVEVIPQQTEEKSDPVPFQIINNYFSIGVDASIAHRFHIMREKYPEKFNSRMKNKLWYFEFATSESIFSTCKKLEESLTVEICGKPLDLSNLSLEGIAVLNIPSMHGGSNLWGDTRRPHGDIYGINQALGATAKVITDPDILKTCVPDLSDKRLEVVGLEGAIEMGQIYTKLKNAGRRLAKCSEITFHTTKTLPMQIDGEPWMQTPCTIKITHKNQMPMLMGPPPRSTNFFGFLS

| Structure (SMILES) | IC50 [1] | IC50 [2] |
| --- | --- | --- |
| CC(c1ccc2cccnc2c1)N1C[C@H](C)N(c2cc(=O)n(C)c3cn(CC#N)nc23)C[C@H]1C (some centres unmarked) [Compound A40] | 2300 nM | 270 nM |
| Cc1nc2cc(C(C)N3C[C@H](C)N(c4cc(=O)n(C)c5cn(CC#N)nc45)C[C@H]3C)ccc2o1 (some centres unmarked) [Compound A41] | > 10000 nM | 1000 nM |
| Cc1nc2cccc(C(C)N3C[C@H](C)N(c4cc(=O)n(C)c5cn(CC#N)nc45)C[C@H]3C)c2o1 (some centres unmarked) [Compound A42] | > 10000 nM | 3390 nM |
| CC(c1ccc2c(c1)OCCO2)N1C[C@H](C)N(c2cc(=O)n(C)c3cn(CC#N)nc23)C[C@H]1C (some centres unmarked) [Compound A43] | 2900 nM | 65 nM |
| C[C@@H]1CN(c2cc(=O)n(C)c3cn(CC#N)nc23)[C@@H](C)CN1Cc1ccc2nccnc2c1 [Compound A44] | 8100 nM | 610 nM |
| Cc1nc2c(C(C)N3C[C@H](C)N(c4cc(=O)n(C)c5cn(CC#N)nc45)C[C@H]3C)cccc2o1 (some centres unmarked) [Compound A45] | > 10000 nM | 1420 nM |
| C[C@H]1CN([C@@H](C)c2ccc3c(c2)OC(C)(C)CO3)[C@@H](C)CN1c1cc(=O)n(C)c2cn(CC#N)nc12 [Compound A46a] | > 10000 nM | > 10000 nM |
| C[C@@H]1CN(c2cc(=O)n(C)c3cn(CC#N)nc23)[C@@H](C)CN1[C@@H](C)c1ccc2c(c1)OC(C)(C)CO2 [Compound A46b] | 2570 nM | 21 nM |
| CC[C@H]1CN(C(C)c2ccc3nccnc3c2)[C@H](CC)CN1c1cc(=O)n(CC)c2cn(CC#N)nc12 (stereo partly drawn) [Compound A47, 2-(7-((2S,5R)-2,5-diethyl-4-(1-(quinoxalin-6-yl)ethyl)piperazin-1-yl)-4-ethyl-5-oxo-4,5-dihydro-2H-pyrazolo[4,3-b]pyridin-2-yl)acetonitrile] | 4200 nM | 9.3 nM |
| CC[C@H]1CN(C(c2ccc(F)cc2)c2ccc(F)cc2OC)[C@H](CC)CN1c1cc(=O)n(C)c2cn(CC#N)nc12 (some centres unmarked) [Compound A53] | 1200 nM | 7.8 nM |
| CC[C@H]1CN(C(C)c2ccc3ncn(C)c3c2)[C@H](CC)CN1c1cc(=O)n(C)c2cn(CC#N)nc12 (some centres unmarked) [Compound A64] | 2800 nM | 230 nM |
| CC[C@H]1CN(C(C)c2cccc3c2OC(F)(F)O3)[C@H](CC)CN1c1cc(=O)n(C)c2cn(CC#N)nc12 (some centres unmarked) [Compound A66] | 9840 nM | 409 nM |
| CC[C@H]1CN(C(C)c2ccc(C(F)(F)F)c(OC)c2)[C@H](CC)CN1c1cc(=O)n(C)c2cn(CC#N)nc12 (some centres unmarked) [Compound A78] | 2410 nM | 640 nM |
| CC[C@H]1CN(C(C)c2ccc(F)cc2COC)[C@H](CC)CN1c1cc(=O)n(C)c2cn(CC#N)nc12 (stereo partly drawn) [Compound A79, 2-(7-((2S,5R)-2,5-diethyl-4-(1-(4-fluoro-2-(methoxymethyl)phenyl)ethyl)piperazin-1-yl)-4-methyl-5-oxo-4,5-dihydro-2H-pyrazolo[4,3-b]pyridin-2-yl)acetonitrile] | 2480 nM | 115 nM |
| CC[C@H]1CN(C(C)c2ccccc2OC(F)(F)F)[C@H](CC)CN1c1cc(=O)n(C)c2cn(CC#N)nc12 (some centres unmarked) [Compound A80] | > 10000 nM | 663 nM |
| CC[C@H]1CN(C(C)c2ccc(F)c(OC)c2)[C@H](CC)CN1c1cc(=O)n(C)c2cn(CC#N)nc12 (some centres unmarked) [Compound A82] | 1020 nM | 90 nM |
| CC[C@H]1CN(C(C)c2ccc(F)cc2C)[C@H](CC)CN1c1cc(=O)n(C)c2cn(CC#N)nc12 (stereo partly drawn) [Compound A84, 2-(7-((2S,5R)-2,5-diethyl-4-(1-(4-fluoro-2-methylphenyl)ethyl)piperazin-1-yl)-4-methyl-5-oxo-4,5-dihydro-2H-pyrazolo[4,3-b]pyridin-2-yl)acetonitrile] | 2890 nM | 128 nM |
| CC[C@H]1CN(C(C)c2ccc(F)cc2OCCOC)[C@H](CC)CN1c1cc(=O)n(C)c2cn(CC#N)nc12 (some centres unmarked) [Compound A85] | 5280 nM | 1180 nM |
| CC[C@H]1CN(C(C)c2ccncc2OC)[C@H](CC)CN1c1cc(=O)n(C)c2cn(CC#N)nc12 (some centres unmarked) [Compound A91] | > 10000 nM | 533 nM |
| CC[C@H]1CN(C(C)c2ncccc2COC)[C@H](CC)CN1c1cc(=O)n(C)c2cn(CC#N)nc12 (some centres unmarked) [Compound A93] | > 10000 nM | 3660 nM |

Now those with a lower IC50 [1], led by results:

| IC50 [1] | IC50 [2] | Structure (SMILES) |
| --- | --- | --- |
| 899 nM | 610 nM | COc1ccc(C(C)N2C[C@H](C)N(c3cc(=O)n(C)c4cn(CC#N)nc34)C[C@H]2C)cc1 (some centres unmarked) [Compound A38] |
| 790 nM | 720 nM | CC[C@H]1CN(C(C)c2ccc3ccccc3c2)[C@H](CC)CN1c1cc(=O)n(C)c2cn(CC#N)nc12 (some centres unmarked) [Compound A50] |
| 630 nM | 630 nM | CC[C@H]1CN(C(C)c2ccc(C(F)(F)F)cc2F)[C@H](CC)CN1c1cc(=O)n(C)c2cn(CC#N)nc12 (stereo partly drawn) [Compound A73, 2-(7-((2S,5R)-2,5-diethyl-4-(1-(2-fluoro-4-(trifluoromethyl)phenyl)ethyl)piperazin-1-yl)-4-methyl-5-oxo-4,5-dihydro-2H-pyrazolo[4,3-b]pyridin-2-yl)acetonitrile] |
| 560 nM | 27 nM | CC[C@H]1CN(C(C)c2cnc3ccccc3c2)[C@H](CC)CN1c1cc(=O)n(C)c2cn(CC#N)nc12 (some centres unmarked) [Compound A56] |
| 461 nM | 60 nM | CC[C@H]1CN(C(C)c2ccc(OC(C)C)nc2)[C@H](CC)CN1c1cc(=O)n(C)c2cn(CC#N)nc12 (some centres unmarked) [Compound A81] |
| 347 nM | 7.8 nM | [2H]C([2H])([2H])n1c(=O)cc(N2C[C@@H](CC)N(C(C)c3ccc4nccnc4c3)C[C@@H]2CC)c2nn(CC#N)cc21 (some centres unmarked) [Compound A51] |
| 177 nM | 8.6 nM | CC[C@H]1CN(C(C)c2ccc3cccnc3c2)[C@H](CC)CN1c1cc(=O)n(C)c2cn(CC#N)nc12 (some centres unmarked) [Compound A61] |
| 130 nM | 200 nM | CC[C@H]1CN(C(C)c2ccn3ncnc3c2)[C@H](CC)CN1c1cc(=O)n(C)c2cn(CC#N)nc12 (some centres unmarked) [Compound A49] |
| 125 nM | 17 nM | CC[C@H]1CN(C(C)c2ccc3ncccc3c2)[C@H](CC)CN1c1cc(=O)n(C)c2cn(CC#N)nc12 (some centres unmarked) [Compound A60] |
| 118 nM | 9440 nM | CC[C@H]1CN(C(C)c2cnccn2)[C@H](CC)CN1c1cc(=O)n(C)c2cn(CC#N)nc12 (some centres unmarked) [Compound A88] |
| 114 nM | 50 nM | CC[C@H]1CN(C(C)c2ccc3ccccc3n2)[C@H](CC)CN1c1cc(=O)n(C)c2cn(CC#N)nc12 (some centres unmarked) [Compound A57] |
| 114 nM | 211 nM | CC[C@H]1CN(C(C)c2c(F)cncc2F)[C@H](CC)CN1c1cc(=O)n(C)c2cn(CC#N)nc12 (some centres unmarked) [Compound A87] |
| 83 nM | 43 nM | CC[C@H]1CN(C(C)c2ccc3cccnc3n2)[C@H](CC)CN1c1cc(=O)n(C)c2cn(CC#N)nc12 (stereo partly drawn) [Compound A63, 2-(7-((2S,5R)-4-(1-(1,8-naphthyridin-2-yl)ethyl)-2,5-diethylpiperazin-1-yl)-4-methyl-5-oxo-4,5-dihydro-2H-pyrazolo[4,3-b]pyridin-2-yl)acetonitrile] |
| 81 nM | 170 nM | CC[C@H]1CN(C(C)c2c(F)cccc2F)[C@H](CC)CN1c1cc(=O)n(C)c2cn(CC#N)nc12 (some centres unmarked) [Compound A83] |
| 75 nM | 73 nM | CC[C@H]1CN(C(C)c2ccc3cnccc3c2)[C@H](CC)CN1c1cc(=O)n(C)c2cn(CC#N)nc12 (some centres unmarked) [Compound A48] |
| 40 nM | 48 nM | CC[C@H]1CN(C(C)c2ccc3ccncc3c2)[C@H](CC)CN1c1cc(=O)n(C)c2cn(CC#N)nc12 (stereo partly drawn) [Compound A62, 2-(7-((2S,5R)-2,5-diethyl-4-(1-(isoquinolin-7-yl)ethyl)piperazin-1-yl)-4-methyl-5-oxo-4,5-dihydro-2H-pyrazolo[4,3-b]pyridin-2-yl)acetonitrile] |
| 38 nM | 640 nM | CC[C@@H]1CN(c2cc(=O)n(C)c3cn(CC#N)nc23)[C@@H](CC)CN1Cc1ccc(F)cc1 [Compound A70] |
| 31 nM | 72 nM | CC[C@H]1CN(C(C)c2nc3ccccc3s2)[C@H](CC)CN1c1cc(=O)n(C)c2cn(CC#N)nc12 (stereo partly drawn) [Compound A52, 2-(7-((2S,5R)-4-(1-(benzo[d]thiazol-2-yl)ethyl)-2,5-diethylpiperazin-1-yl)-4-methyl-5-oxo-4,5-dihydro-2H-pyrazolo[4,3-b]pyridin-2-yl)acetonitrile] |
| 22 nM | 9 nM | CC[C@H]1CN(C(C)c2cnc3ccccc3n2)[C@H](CC)CN1c1cc(=O)n(C)c2cn(CC#N)nc12 (some centres unmarked) [Compound A55] |
| 22 nM | 1940 nM | CC[C@H]1CN(C(C)c2ccncc2)[C@H](CC)CN1c1cc(=O)n(C)c2cn(CC#N)nc12 (some centres unmarked) [Compound A86] |
| 13 nM | 1900 nM | CC[C@H]1CN(C(C)c2ccccn2)[C@H](CC)CN1c1cc(=O)n(C)c2cn(CC#N)nc12 (some centres unmarked) [Compound A90] |
| 10 nM | 130 nM | CC[C@H]1CN(C(C)c2ccc(F)cc2)[C@H](CC)CN1c1cc(=O)n(C)c2cn(CC#N)nc12 (some centres unmarked) [Compound A67] |
| 9.2 nM | 600 nM | CC[C@@H]1CN(c2cc(=O)n(C)c3cn(CC#N)nc23)[C@@H](CC)CN1Cc1ccc(OC(F)(F)F)cc1 [Compound A77] |
| 7.3 nM | 2.8 nM | CC[C@H]1CN(C(C)c2cc3ccccc3cn2)[C@H](CC)CN1c1cc(=O)n(C)c2cn(CC#N)nc12 (some centres unmarked) [Compound A58] |
| 4.3 nM | 296 nM | CC[C@H]1CN(C(C)c2ccccc2)[C@H](CC)CN1c1cc(=O)n(C)c2cn(CC#N)nc12 (some centres unmarked) [Compound A89] |
| 3.8 nM | 830 nM | CC[C@H]1CN(C(C)c2ccc(F)cn2)[C@H](CC)CN1c1cc(=O)n(C)c2cn(CC#N)nc12 (some centres unmarked) [Compound A74] |
